{
  "source": "patent US20230338297A1",
  "about": "“Encapsulated Agents that Bind to MCT-1” (THE JOHNS HOPKINS UNIVERSITY, priority 2020, published 2023)",
  "key": {"DLD-1 parental cells": {"test_system": "DLD-1 parental cells", "experiment": "effect of MCT-1 loss on sensitivity: DLD-1 parental cells", "format": "cell-based, human", "conditions": "0-200 uM", "method": "(§1) The Alt-R CRISPR system (Integrated DNA Technologies, IDT) was used to delete SLC16A1, the gene encoding for the MCT-1 protein, in the DLD-1 and MiaPaCa-2 cell lines. The gRNA sequence was designed using CHOPCHOP v.3 12. Briefly, Alt-R CRISPR Cas9 crRNAs ([…], IDT; SEQ ID NO:1) and Alt-R CRISPR-Cas9 tracrRNA (1072532, IDT) were re-suspended at 100 μM with Nuclease-Free Duplex Buffer (IDT). The crRNAs and tracrRNA were mixed at a 1:1 molar ratio and denatured for 5 min at 95° C., followed by slow cooling to room temperature to duplex prior to mixing with Cas9 Nuclease (1081059, IDT) at a 1.2:1 molar ratio for 15 min. Forty pmoles of the Cas9 ribonucleoprotein (RNP) containing tracrRNA/MCT-1 crRNA duplex were mixed with 2×10^5 DLD-1 cells in 20 μL of OptiMEM (31985088, ThermoFisher Scientific). This mixture was loaded into a 0.1 cm cuvette (1652089, Bio Rad) and electroporated at 120 V for 16 ms using an ECM 2001 (Harvard Apparatus). Cells were immediately transferred to complete growth medium and cultured for one week. Upon reaching confluence, polyclonal pools were plated at a density of 0.5 to 2 cells per well in 96-well plates and cultured for 3 weeks. Single colonies were transferred into 2 replica 96-well plates. […]"}, "[1]": {"experiment": "stability of CD-3BP complexes and free 3BP in sera, residual 3BP by cell toxicity assay (HCT-116)", "format": "in vitro ADME, human", "conditions": "incubated with sera at 37° C. for up to 8 hours", "source_text": "However, how microencapsulation in CD alters the solubility and stability of 3BP and whether chemical modifications of CDs can alter physicochemical characteristics of the drug remains unclear. To address these questions and clarify the biological effect of microencapsulation, an assay was designed to estimate the stability of various CD-3BP complexes when compared to free 3BP in human sera.\nTwo different types of complexes, the previously used sCD-3BP (Chapiro, J. et al., Clinical cancer research: An official journal of the American Association for Cancer Research 20, 6406-6417, doi:10.1158/1078-0432.ccr-14-1271 (2014)) and newly generated HPCD-3BP were compared side-by-side. […] Aliquots were collected at various time points and assessed for residual 3BP by a cell toxicity assay. […]\nFree 3BP, sCD-3BP and HPCD-3BP were incubated at various concentrations (12.5 μM, 25 μM, 50 μM, 100 μM and 200 μM) with 90 μL of mouse sera at 37° C. for up to 8 hours. […] Un-degraded biologically active 3BP at each time was then assessed by a cell toxicity assay. […] Cell death was measured by imaging cells after 72 hours using the IncuCyte® Live Cell-Analysis System (Essen Bioscience) and using the CellTox™ Green Cytotoxicity Assay (Promega), following the manufacturer's recommendation. […]"}, "DLD-1 MCT-1(-) cells": {"test_system": "DLD-1 MCT-1(-) cells", "experiment": "effect of MCT-1 loss on sensitivity: DLD-1 MCT-1(-) knock-out cells", "format": "cell-based, human", "conditions": "even at 200 uM", "method": "as §1"}, "MiaPaCa-2 cells": {"test_system": "MiaPaCa-2 cells", "experiment": "rapid induction of cell death, timed exposure and washout of MiaPaCa-2 cells", "format": "cell-based, human", "method": "Representative pancreatic cancer cells MiaPaCa-2 (MCT-1: 163 TPM, Expression Atlas) were plated in a 96 well plate at 12,000 cells/well. These cells were then exposed to a 2-fold dilution series of sCD-3BP and free 3BP for different amounts of time (exposure time: 15 minutes, 30 minutes, 1 hour, 2 hours, 4 hours and 8 hours) and their outcome recorded by Incucyte® Live-Cell Analysis Systems, over 36 hours. After the desired timed exposure, cells were washed with PBS and fresh media was added to ensure no more drug persisted in the respective wells. […] The IC50 of both agents was calculated to be 84-90 uM when cells were exposed to the drug for only 15 minutes. […] While treated cells looked initially healthy following drug washout, cell death became discernable 24 hours post exposure."}, "MCT-1": {"biological_target": "T1, MCT-1 (Homo sapiens, UniProt P53985)", "T1 construct": "endogenous in cells", "T1 sequence (P53985 1-500)": "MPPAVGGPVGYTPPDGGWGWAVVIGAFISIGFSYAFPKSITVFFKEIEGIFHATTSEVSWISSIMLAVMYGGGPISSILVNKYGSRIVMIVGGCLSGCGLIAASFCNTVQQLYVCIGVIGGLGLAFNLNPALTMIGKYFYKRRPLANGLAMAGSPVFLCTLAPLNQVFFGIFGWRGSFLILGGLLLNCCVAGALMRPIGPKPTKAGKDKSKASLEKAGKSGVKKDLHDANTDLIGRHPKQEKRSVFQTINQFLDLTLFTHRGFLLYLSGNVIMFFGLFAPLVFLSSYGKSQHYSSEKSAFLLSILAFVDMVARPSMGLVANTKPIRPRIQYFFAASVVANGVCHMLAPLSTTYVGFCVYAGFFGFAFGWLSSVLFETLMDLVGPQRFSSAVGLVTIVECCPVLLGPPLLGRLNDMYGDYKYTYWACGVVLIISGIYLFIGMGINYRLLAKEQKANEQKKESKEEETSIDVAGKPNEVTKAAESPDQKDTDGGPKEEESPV", "T1 sequence (P35613 140-385 partner limits assumed)": "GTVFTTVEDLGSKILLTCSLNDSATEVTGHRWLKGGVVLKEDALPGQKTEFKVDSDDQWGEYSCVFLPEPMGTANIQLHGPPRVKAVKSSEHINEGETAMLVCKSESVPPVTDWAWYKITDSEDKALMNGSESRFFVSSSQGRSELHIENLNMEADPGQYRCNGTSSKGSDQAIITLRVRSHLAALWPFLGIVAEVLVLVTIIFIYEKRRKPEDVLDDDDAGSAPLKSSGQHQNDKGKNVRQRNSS", "format": "cell-based", "source_text": "To gain insight into this lack of sensitivity, the expression levels of three cell surface channels, GLUT-1 (Yu, M. et al. The prognostic value of GLUT1 in cancers: a systematic review and meta-analysis. Oncotarget 8, 43356-43367, doi:10.18632/oncotarget.17445 (2017)), MCT-1 and MCT-4 (Hong, C. S. et al. MCT1 Modulates Cancer Cell Pyruvate Export and Growth of Tumors that Co-express MCT1 and MCT4. Cell Reports 14, 1590-1601, doi:10.1016/j.celrep.2016.01.057 (2016)) were compared in all 7 pancreatic cancer cell lines using RNA expression atlas (FIG. 4A). While neither GLUT1 (primarily responsible for glucose uptake and therefore, the FDG-PET positive phenotype) nor MCT-4 expression levels of CFPAC-1 were lower than other cell lines in the panel, expression levels of MCT-1 in CFPAC-1 (22 TPM) was nearly three-fold lower than the next lowest expressor (BxPC-3, 64 TPM) in the cell line panel (FIG. 4B). […]"}},
  "data": [
    {"smiles": "O=C(O)C(=O)CBr", "note": "[3BP, 3-bromopyruvate]", "values": [
      {"measurement": "cell death", "setting": "DLD-1 parental cells", "result": "dramatic cell death"},
      {"measurement": "stability / protection against degradation in sera", "setting": "[1]; listed as Free 3BP", "result": "rapidly degraded"},
      {"measurement": "stability / protection against degradation in sera", "setting": "[1]; listed as free 3BP", "result": "rapid degradation"},
      {"measurement": "loss of viability", "setting": "DLD-1 MCT-1(-) cells", "result": "no loss of viability"},
      {"measurement": "potency at killing MiaPaCa-2 cells, sCD-3BP compared with 3BP", "setting": "MiaPaCa-2 cells", "result": "equally potent"}
    ]},
    {"smiles": "Cc1[nH]nc(C(F)(F)F)c1Cc1sc2c(c1C(=O)N1C[C@](C)(O)CO1)c(=O)n(C)c(=O)n2C(C)C", "note": "[AZD3965]", "values": [
      {"measurement": "rescue of cells from CD-3BP mediated cytotoxicity", "setting": "MCT-1", "result": "clear dose dependent rescue"}
    ]}
  ]
}
